Experimental data taken from PMC11054337, “Identification of Leishmania donovani PEX5-PTS1 Interaction Inhibitors through Fluorescence Polarization-Based High-Throughput Screening” (Molecules, 2024).
Several values for one entry are separate records, joined by “and”; a condition that tells them apart may be missing. Equal entries are not always repeated. Where two headings read alike, the source gives them in different places. No end group written: not given here.

Experiments:
[1] = test system: L. donovani promastigotes; assay: L. donovani promastigote growth inhibition (resazurin); type: cell-based, Leishmania donovani; settings: for IC50: 72 h exposure, three independent replicates, read-out: L. donovani IC50 ± SD
Protocol: (§1) All the restriction enzymes used in this study were sourced from New England BioLabs (240 County Road Ipswich, Ipswich, MA, USA). The PTS1 peptides, both unlabeled and fluorescently labeled at the N-terminus with fluorescein isothiocyanate (FITC), were purchased from Peptron (Daejeon, Republic of Korea). All the inhibitors were purchased from Enamine (Kyiv, Ukraine). L. donovani strain MHOM/SD/62/1S-CL2D and L. major strain LV39 (MRHO/Sv/59/P) were cultured in their extracellular promastigote forms. The parasite was cultured at 28 °C using M199 medium (Sigma-Aldrich, St. Louis, MO, USA) supplemented with 40 mM HEPES, 0.1 mM adenine, 0.0001% biotin, and 4.62 mM NaHCO3, along with additional supplements of hemin and xanthine. The T. brucei brucei Lister strain 427 in its bloodstream form (BSF) was cultured at 37 °C in a controlled atmosphere consisting of 5% CO2 in HMI-9 medium enriched with 10% fetal bovine serum (FBS), 100 µg/mL penicillin, and 100 µg/mL streptomycin. The parasites were maintained through only 10 passages for this study.
(§2) Briefly, the assays were conducted in 384-well plates, each well was seeded with 5 × 10^4 parasites, and the compounds were exposed for 72 h. The compounds were tested in dose-diluted format, starting from 100 μM with a two-fold dilution across 10 points. Subsequently, resazurin was added to each well to achieve a final concentration of 200 μM. The plates were then incubated for an additional 5 h before fixation. The assay results were recorded using a Victor3 plate reader (PerkinElmer, Shelton, CT, USA). For the assessment against L. donovani intracellular amastigotes, phorbol 12-myristate 13-acetate-treated THP-1 cells were seeded at 0.8 × 10^4 cells per well in a 384-well plate in RPMI-1640 complete medium supplemented with 10% FBS. After 48 h, the infection was carried out using L. donovani promastigotes with a multiplicity of infection of 10:1. The infected cells were treated with compounds for 72 h, then the cells and parasites were washed, stained with 5 µM 4′,6-diamidino-2-phenylindole (DAPI), and fixed with 4% paraformaldehyde. Images were acquired using Operetta® CLS™ (PerkinElmer, Shelton, CT, USA), and the numbers of parasites and host cells were quantified using Columbus™ software version 2.8 (PerkinElmer, Shelton, CT, USA).
(§3) All half-maximal inhibitory concentration (IC50) values were determined based on data obtained from three independent experiments. The dose–response curves were generated and analyzed using GraphPad Prism 6 software (GraphPad Software, San Diego, CA, USA). For the analysis, a sigmoidal dose–response equation was employed, incorporating a variable hill slope option.

L. major promastigotes = assay: L. major promastigote growth inhibition (resazurin); type: cell-based, Leishmania major; settings: for IC50: 72 h exposure, three independent replicates, read-out: L. major IC50 ± SD
Protocol: as §1, §2, §3

LdPEX5-PTS1 interaction = target: T1, LdPEX5-PTS1 interaction (Leishmania donovani, UniProt A0A3S7X906); assay: biochemical; type: binding; settings: 1 µM LdPEX5, 5 nM FITC-SGAGSKL
T1 construct: encoding LdPEX5CT, corresponding to 322 amino acids (AF198051.1: 303-625), was synthesized; 6xHis (pET15b) (N); made in house; host or cells: Escherichia coli BL21 (DE3)
T1 sequence (A0A3S7X906 entry or part of it): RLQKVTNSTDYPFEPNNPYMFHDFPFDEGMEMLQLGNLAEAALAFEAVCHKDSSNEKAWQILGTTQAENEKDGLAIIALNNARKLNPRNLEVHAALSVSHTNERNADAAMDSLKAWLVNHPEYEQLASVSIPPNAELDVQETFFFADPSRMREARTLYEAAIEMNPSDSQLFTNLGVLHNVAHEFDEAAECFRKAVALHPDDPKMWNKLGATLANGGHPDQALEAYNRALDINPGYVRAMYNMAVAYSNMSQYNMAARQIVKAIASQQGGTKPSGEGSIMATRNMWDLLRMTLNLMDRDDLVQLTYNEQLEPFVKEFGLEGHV
Protocol: HTS using FP was conducted to identify inhibitors of the LdPEX5-PTS1 interaction. The screening utilized an in-house compound library comprising 51,406 compounds with diverse structural profiles. All compounds were initially solubilized in 100% DMSO with a concentration of 2 mM, and the final testing concentration in the assay was set at 20 μM. DMSO served as the negative control, while unlabeled PTS1 peptide (TRYPAKL) was used as the positive control. The assay mixture included FITC-SGAGSKL peptide and LdPEX5 at final concentrations of 5 nM and 1 μM, respectively. The reaction plates with compounds were incubated for 1 h at room temperature before FP signal detection. Single-point inhibition assays were performed, and the Z’ factor was employed to assess the quality of the assay. The Z’ factor was calculated using the formula Z′ = 1 − 3(σp + σn)/(μp − μn), where σp and σn are the standard deviations of the positive and negative controls, respectively, and μp and μn represent their respective mean values.
as §3

T. brucei BSF = T. brucei BSF growth inhibition (resazurin); type: cell-based, Trypanosoma brucei; settings: for IC50: Trypanosoma brucei, blood stream form, 72 h exposure, three independent replicates, read-out: T. brucei IC50 ± SD; for Growth inhibition of T. brucei (in words): BSF
Protocol: as §1, §2, §3

[2] = test system: L. donovani intracellular amastigotes; assay: L. donovani intracellular amastigote assay in THP-1 cells (image-based); type: cell-based, Leishmania donovani; settings: infected THP-1 cells, 72 h treatment
Protocol: as §2

[3] = 1 h, three independent replicates, read-out: LdPEX5-PTS1 Inhibition IC50 ± SD
[4] = IC50 of unlabeled PTS1 peptides, peptide from 60 µM half dilution 10 points

C[C@@H]1[C@H](O)[C@@H](C)/C=C/C=C/C=C/C=C/C=C/C=C/C=C/[C@H](O[C@@H]2O[C@H](C)[C@@H](O)[C@H](N)[C@@H]2O)C[C@@H]2O[C@](O)(C[C@@H](O)C[C@@H](O)[C@H](O)CC[C@@H](O)C[C@@H](O)CC(=O)O[C@H]1C)C[C@H](O)[C@H]2C(=O)O [Amphotericin B, reference compound] was tested, and the IC50 ([1]; Leishmania donovani, 72 h) was 0.42 ± 0.03 µM.
Molecule CCCCCCCCCCCCCCCCOP(=O)([O-])OCC[N+](C)(C)C [Miltefosine, reference compound] has an IC50 (L. major promastigotes; Leishmania major, 72 h) of 7.37 ± 1.67 µM.
For CN(C)c1ccc(Nc2cnc3ccccc3n2)cn1 [P02], the IC50 (L. major promastigotes; Leishmania major, 72 h) was over 50 µM, the IC50 ([1]; Leishmania donovani, 72 h) was over 50 µM and the IC50 (LdPEX5-PTS1 interaction; [3]) was 23.6 ± 0.86 µM. It also gave an IC50 (T. brucei BSF) of over 50 µM.
Cn1ncc(-c2nc3cc(S(N)(=O)=O)ccc3[nH]2)n1 [P04, 2-(2-methyl-2H-1,2,3-triazol-4-yl)-1H-benzo[d]imidazole-5-sulfonamide] showed an IC50 (L. major promastigotes; Leishmania major, 72 h) of over 50 µM, an IC50 ([1]; Leishmania donovani, 72 h) of over 50 µM and an IC50 (LdPEX5-PTS1 interaction; [3]) of 14.6 ± 0.76 µM. For the same molecule, the IC50 (T. brucei BSF) was 12.1 ± 2.19 µM.
COc1ccc(NC(=O)C2(S(=O)(=O)c3ccc(Cl)cc3)CCCC2)cn1 [P08, 1-((4-chlorophenyl)sulfonyl)-N-(6-methoxypyridin-3-yl)cyclopentane-1-carboxamide] showed an IC50 (L. major promastigotes; Leishmania major, 72 h) of over 50 µM, an IC50 ([1]; Leishmania donovani, 72 h) of over 50 µM and an IC50 (LdPEX5-PTS1 interaction; [3]) of 3.89 ± 0.15 µM. It also gave an IC50 (T. brucei BSF) of over 50 µM.
O=C(Nc1nc2ccccc2nc1N1CCCC1)c1ccc(Cn2cccn2)cc1 [P10, 4-((1H-pyrazol-1-yl)methyl)-N-(3-(pyrrolidin-1-yl)quinoxalin-2-yl)] was tested, and the “Growth inhibition of L. major (in words)” value (L. major promastigotes) was “not active”, the IC50 (L. major promastigotes; Leishmania major, 72 h) was over 50 µM and the “Activity against intracellular amastigote form of Leishmania” value [2] was “inactive”. For the same molecule, the IC50 ([1]; Leishmania donovani, 72 h) was 3.3 ± 0.23 µM, the IC50 (LdPEX5-PTS1 interaction; [3]) was ~16 µM and 16.2 µM and the “Growth inhibition of T. brucei (in words)” value (T. brucei BSF) was “not active”. For the same molecule, the IC50 (T. brucei BSF) was over 50 µM.
With Cc1ccc(C(=O)Nc2nc3ccccc3nc2N2CCCC2)cc1S(C)(=O)=O [P16] the “Growth inhibition of L. major (in words)” value (L. major promastigotes) was “not able to inhibit the growth”, the IC50 (L. major promastigotes; Leishmania major, 72 h) was over 50 µM and the “Growth inhibition of L. donovani (in words)” value [1] was “not able to inhibit the growth”. The IC50 ([1]; Leishmania donovani, 72 h) was over 50 µM, the IC50 (LdPEX5-PTS1 interaction; [3]) was ~16 µM and 16.9 µM and the “Growth inhibition of T. brucei (in words)” value (T. brucei BSF) was “not able to inhibit the growth”. The IC50 (T. brucei BSF) was over 50 µM.
Cc1cc(C(=O)Nc2cc(C(N)=O)ccc2N2CCCCC2)c2c(C)noc2n1 [P17] gave an IC50 (L. major promastigotes; Leishmania major, 72 h) of over 50 µM, an IC50 ([1]; Leishmania donovani, 72 h) of over 50 µM and an IC50 (LdPEX5-PTS1 interaction; [3]) of 25.2 ± 0.89 µM. It also gave an IC50 (T. brucei BSF) of over 50 µM.
With CNc1ccc(Nc2ncnc3sccc23)cn1 [P20, N^2-methyl-N^5-(thieno [2,3-d]pyrimidin-4-yl)pyridine-2,5-diamine] the “Growth inhibition of L. major (in words)” value (L. major promastigotes) was “inhibitory activity”, the IC50 (L. major promastigotes) was 19.2 ± 2.65 µM and the IC50 (L. major promastigotes; Leishmania major, 72 h) was 12.2 ± 1.36 µM. For the same molecule, the “Activity against intracellular amastigote form of Leishmania” value [2] was “inactive”, the “Growth inhibition of L. donovani (in words)” value [1] was “inhibitory activity” and the IC50 [1] was 12.2 ± 1.36 µM. The IC50 ([1]; Leishmania donovani, 72 h) was 19.2 ± 2.65 µM, the IC50 (LdPEX5-PTS1 interaction; [3]) was 16.5 ± 0.79 µM and the “Growth inhibition of T. brucei (in words)” value (T. brucei BSF) was “inhibitory activity”. It also gave an IC50 (T. brucei BSF) of 3.06 ± 0.38 µM.
CCc1ncc2c(n1)CN(Cc1cc(=O)n3cccc(C)c3n1)CC2 [P21] was tested, and the IC50 (L. major promastigotes; Leishmania major, 72 h) was over 50 µM, the IC50 ([1]; Leishmania donovani, 72 h) was over 50 µM and the IC50 (LdPEX5-PTS1 interaction; [3]) was 24.5 ± 1.05 µM. For the same molecule, the IC50 (T. brucei BSF) was over 50 µM.
CCOc1ccc(NC2CCN(Cc3cscn3)CC2)cn1 [P28] gave an IC50 (L. major promastigotes; Leishmania major, 72 h) of over 50 µM, an IC50 ([1]; Leishmania donovani, 72 h) of over 50 µM and an IC50 (LdPEX5-PTS1 interaction; [3]) of 16 ± 0.96 µM. It also gave an IC50 (T. brucei BSF) of over 50 µM.
In the case of N=C(N)c1ccc(OCCCCCOc2ccc(C(=N)N)cc2)cc1 [Pentamidine, reference compound], the IC50 (T. brucei BSF) is reported as 0.69 ± 0.05 µM.
ARLASKV [ARLASKV, reference compound] was tested, and the IC50 (LdPEX5-PTS1 interaction; [4]) was over 60 µM.
SGAGSKL [SGAGSKL, reference compound] was tested, and the IC50 (LdPEX5-PTS1 interaction; [4]) was 10.7 µM.
For TRYPAKL [TRYPAKL, reference compound], the IC50 (LdPEX5-PTS1 interaction; [4]) was 3.61 µM.
